Laboratory results as given in patent US9562034B2, “Endoparasite control agent” (The University of Tokyo, priority 2012, dated 2017).
Where two headings read alike, the source gives them in different places.

How the values were obtained:
[1] = target: T1, Ascaris suum succinate-ubiquinone reductase (mitochondrial complex II) (Ascaris suum, UniProt O44074+P92506+P92507); assay: In vitro inhibitory activity on Ascaris suum succinate-ubiquinone reductase (mitochondrial complex II); assay type: biochemical
T1 construct: from tissue; host or cells: mitochondria from adult Ascaris suum muscle
Procedure: In Vitro Measurement of Inhibitory Activity on Ascaris suum Succinate-Ubiquinone Reductase (Mitochondrial Complex II)
To a solution containing 50 mM potassium phosphate (pH 7.4) and 0.1% (w/v) sucrose monolaurate, an electron acceptor ubiquinone-2 (UQ2) was added at a final concentration of 60 μM, and the mixture was allowed to stand at 25° C. for 20 minutes. To this, potassium cyanide (final concentration: 2 mM) and mitochondria prepared from adult Ascaris suum muscle were added, and thorough mixing was done. To aliquots of the mixture, an inhibitor to be tested was added at various concentrations, and the mixtures were allowed to stand at 25° C. for 3 minutes. The enzymatic reaction was initiated by addition of potassium succinate (final concentration: 10 mM).

[2] = test system: Haemonchus contortus L1-stage larvae; assay: In vivo activity test on Haemonchus nematode (motor ability of L1-stage larvae, 96-well plate); settings: twenty L1-stage larvae per well, 27° C./95% RH for 4 days, DMSO 0.78% (v/v)
Procedure: In Vivo Activity Test on Haemonchus Nematode
In a 96-well plate, twenty L1-stage larvae (Haemonchus contortus) per well were maintained so that they could freely move, and solutions of compounds of the present invention dissolved at predetermined concentrations in DMSO (the final concentration of DMSO was 0.78% (v/v)) were added at 0.5 μl/well each. The plate was kept under the conditions of 27° C./95% RH for 4 days. The motor ability of the larvae was examined and the concentration required for 50% inhibition of the motor ability (EC50) was determined. Based on the EC50 value, the activity against the Haemonchus nematode was graded according to the criterion shown below.
• A: The EC50 value is lower than 0.5 ppm. • B: The EC50 value is 0.5 ppm or higher but lower than 5 ppm. • C: The EC50 value is 5 ppm or higher.

[3] = mitochondria from adult Ascaris suum muscle, UQ2 60 μM, potassium succinate 10 mM, 25° C., absorbance at 278 nm, read-out: Ascaris suum IC50 value (A)

T1 sequence (O44074 22-282): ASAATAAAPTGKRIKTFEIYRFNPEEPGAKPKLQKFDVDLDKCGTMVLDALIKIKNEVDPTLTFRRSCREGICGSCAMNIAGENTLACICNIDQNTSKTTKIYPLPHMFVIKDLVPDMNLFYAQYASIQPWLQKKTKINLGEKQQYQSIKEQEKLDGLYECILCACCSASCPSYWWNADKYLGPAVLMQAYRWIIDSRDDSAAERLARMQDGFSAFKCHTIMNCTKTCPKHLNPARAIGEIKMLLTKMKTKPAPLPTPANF
T1 sequence (P92506 32-188): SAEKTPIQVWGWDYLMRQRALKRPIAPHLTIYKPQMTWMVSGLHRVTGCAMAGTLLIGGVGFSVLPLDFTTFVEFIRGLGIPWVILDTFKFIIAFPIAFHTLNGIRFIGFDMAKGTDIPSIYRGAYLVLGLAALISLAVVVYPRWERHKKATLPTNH
T1 sequence (P92507 26-156): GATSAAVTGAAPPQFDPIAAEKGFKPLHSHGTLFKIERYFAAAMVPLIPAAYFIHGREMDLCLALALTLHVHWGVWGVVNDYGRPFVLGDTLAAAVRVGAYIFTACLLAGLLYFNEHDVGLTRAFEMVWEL
T1 sequence (Q33862 19-645 partner): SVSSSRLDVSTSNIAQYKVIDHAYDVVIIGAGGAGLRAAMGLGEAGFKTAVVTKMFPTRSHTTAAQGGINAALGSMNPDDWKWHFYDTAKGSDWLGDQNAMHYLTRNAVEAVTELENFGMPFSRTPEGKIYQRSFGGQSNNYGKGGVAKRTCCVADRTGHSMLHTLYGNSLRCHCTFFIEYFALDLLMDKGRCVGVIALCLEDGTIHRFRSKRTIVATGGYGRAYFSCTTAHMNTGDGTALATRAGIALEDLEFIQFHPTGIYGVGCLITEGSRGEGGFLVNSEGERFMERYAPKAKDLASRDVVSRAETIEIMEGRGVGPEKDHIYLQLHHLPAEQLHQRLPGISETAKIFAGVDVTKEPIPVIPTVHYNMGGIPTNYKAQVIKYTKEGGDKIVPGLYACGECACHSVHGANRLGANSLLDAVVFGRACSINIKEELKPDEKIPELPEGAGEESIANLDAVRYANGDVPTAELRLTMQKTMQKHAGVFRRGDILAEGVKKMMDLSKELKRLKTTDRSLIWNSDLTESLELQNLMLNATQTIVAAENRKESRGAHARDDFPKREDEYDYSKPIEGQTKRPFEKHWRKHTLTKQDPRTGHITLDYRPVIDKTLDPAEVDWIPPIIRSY

Row | IC50 [1, 3] [nM] | Structure (SMILES) | IC50 [1] [nM] | Grade (EC50, concentration required for 50% inhibition of the motor ability) [2]
1 | 6 | Cc1cccnc1C(=O)NCCc1ccc(Cl)cc1Cl [Compound 30] |  | 
2 | 3.4 | O=C(NCCc1ccc(F)cc1Cl)c1nccnc1C(F)(F)F [Compound 11] |  | 
3 | 42 | O=C(NCCc1ccc(Cl)cc1Cl)c1cnccc1C(F)(F)F [Compound 31] |  | 
4 | 2.7 | O=C(NCC1(c2ccc(Cl)cc2Cl)CC1)c1nccnc1Cl [Compound 13] |  | A (The EC50 value is lower than 0.5 ppm.)
5 | 1.1 | O=C(NCCc1ccc(Cl)cc1Cl)c1sccc1C(F)(F)F [Compound 7] |  | A (The EC50 value is lower than 0.5 ppm.)
6 | 2 | O=C(NCCc1cc(F)c(Cl)cc1F)c1nccnc1C(F)(F)F [Compound 24] |  | A (The EC50 value is lower than 0.5 ppm.)
7 | 20 | C[C@@H](COc1ncc(C(F)(F)F)cc1Cl)NC(=O)c1cccnc1Cl [Compound 44] |  | 
8 | 1.6 | Cc1occc1C(=O)NCCc1ccc(Cl)cc1Cl [Compound 50] |  | 
9 | 6.7 | O=C(NCCc1cc(F)c(Cl)cc1Cl)c1cccnc1Cl [Compound 29] |  | 
10 | 3.3 | CC(Cc1ccc(Cl)cc1Cl)NC(=O)c1nccnc1Cl (stereo not drawn) [Compound 14] |  | 
11 | 57 | Nc1nc(C(F)(F)F)c(C(=O)NCCc2ccc(Cl)cc2Cl)s1 [Compound 2] |  | 
12 | 47 | O=C(NCCc1ncc(C(F)(F)F)cc1Cl)c1cccnc1Cl [Compound 1] |  | A (The EC50 value is lower than 0.5 ppm.)
13 | 2.2 | O=C(NCCc1cc(F)c(F)cc1Cl)c1nccnc1C(F)(F)F [Compound 27] |  | 
14 | 4.5 | O=C(NCCc1ccc(Oc2ccc(C(F)(F)F)cn2)cc1Cl)c1cccnc1Cl [Compound 45] |  | 
15 | 10 | CC(Cc1ccc(Cl)cc1F)NC(=O)c1nccnc1Cl (stereo not drawn) [Compound 23] |  | A (The EC50 value is lower than 0.5 ppm.)
16 | 18 | O=C(NCCc1cc(F)c(Cl)cc1F)c1cccnc1Cl [Compound 25] |  | A (The EC50 value is lower than 0.5 ppm.)
17 | 1.3 | O=C(NCCc1cc(F)c(Cl)cc1Cl)c1nccnc1C(F)(F)F [Compound 28] |  | A (The EC50 value is lower than 0.5 ppm.)
18 | 1.7 | O=C(NCCc1ccc(Oc2ncc(C(F)(F)F)cc2Cl)cc1Cl)c1cccnc1Cl [Compound 22] |  | A (The EC50 value is lower than 0.5 ppm.)

The remaining lines, values behind:

Row | Structure (SMILES) | IC50 [1, 3] [nM] | IC50 [1] [nM] | Grade (EC50, concentration required for 50% inhibition of the motor ability) [2]
19 | O=C(NCCc1ccc(-c2ccc(OC(F)(F)F)cc2)cc1F)c1nccnc1Cl [Compound 17] |  | 2 | A (The EC50 value is lower than 0.5 ppm.)
20 | Cc1nccnc1C(=O)NCCc1ccc(-c2ccc(OC(F)(F)F)cc2)cc1 [Compound 5] | 26 |  | 
21 | O=C(NC1(Cc2ccc(Cl)cc2Cl)CC1)c1nccnc1C(F)(F)F [Compound 18] | 3.1 |  | 
22 | O=C(NCCc1ccc(C(F)(F)F)cc1Cl)c1nccnc1C(F)(F)F [Compound 19] | 1.3 |  | A (The EC50 value is lower than 0.5 ppm.)
23 | O=C(NCC1(c2ccc(Cl)cc2Cl)CC1)c1nccnc1C(F)(F)F [Compound 16] | 1.5 |  | A (The EC50 value is lower than 0.5 ppm.)
24 | CC(Cc1cc(F)c(F)cc1Cl)NC(=O)c1nccnc1C(F)(F)F (stereo not drawn) [Compound 26] | 2.9 |  | 
25 | O=C(NCCc1ccc(Cl)cc1Cl)c1cccnc1C(F)(F)F [Compound 6] | 4.4 |  | A (The EC50 value is lower than 0.5 ppm.)
26 | O=C(NCCc1ncc(C(F)(F)F)cc1Cl)c1nccnc1C(F)(F)F [Compound 3] | 9.4 |  | A (The EC50 value is lower than 0.5 ppm.)
27 | O=C(NCCc1ccc(-c2ccc(OC(F)(F)F)cc2)cc1Cl)c1nccnc1C(F)(F)F [Compound 4] | 1.3 |  | 
28 | CC(Cc1ccc(Cl)cc1Cl)NC(=O)c1nccnc1C(F)(F)F (stereo not drawn) [Compound 15] |  |  | A (The EC50 value is lower than 0.5 ppm.)
29 | Cc1nc(C(F)(F)F)c(C(=O)NCCc2ccc(Cl)cc2Cl)s1 [Compound 38] |  |  | B (The EC50 value is 0.5 ppm or higher but lower than 5 ppm.)
30 | O=C(NCCc1ccc(Cl)cc1F)c1nccnc1C(F)(F)F [Compound 20] | 4.9 |  | 
31 | Cc1nccnc1C(=O)NCCc1ccc(-c2ccc(OC(F)(F)F)cc2)cc1 [Compound 48] |  |  | A (The EC50 value is lower than 0.5 ppm.)
32 | C[C@@H](Cn1nc(C(F)(F)F)c(Cl)c1Cl)NC(=O)c1nccnc1C(F)(F)F [Compound 43] | 9.9 |  | 
33 | Cc1c(C(=O)NCCc2ccc(Cl)cc2Cl)c(C(F)(F)F)nn1C [Compound 35] |  |  | B (The EC50 value is 0.5 ppm or higher but lower than 5 ppm.)
34 | C[C@@H](Cn1nc(Br)c(Br)c1Br)NC(=O)c1cccnc1Cl [Compound 41] | 42 |  | 
35 | CC(Cc1ccc(Cl)cc1Cl)NC(=O)c1nccnc1I (stereo not drawn) [Compound 47] |  | 2.3 | 
36 | O=C(NCCc1ccc(Oc2ncc(C(F)(F)F)cc2Cl)cc1Cl)c1nccnc1C(F)(F)F [Compound 21] | 1.3 |  | A (The EC50 value is lower than 0.5 ppm.)
37 | O=C(NCCc1ccc(Cl)cc1Cl)c1nccnc1C(F)(F)F [Compound 9] |  |  | A (The EC50 value is lower than 0.5 ppm.)
38 | C[C@@H](Cn1nc(Br)c(Br)c1Br)NC(=O)c1cccnc1C(F)(F)F [Compound 42] | 13 |  | 
39 | O=C(NCCc1ccc(Cl)cc1Cl)C1=C(C(F)(F)F)OCCS1 [Compound 33] |  | 7.3 | A (The EC50 value is lower than 0.5 ppm.)
